Measured values as given in patent publication US20260217768A1, “NANOPARTICLE-NHE3 PEPTIDE TO TREAT DIARRHEA” (The Johns Hopkins University, priority 2023, published 2026).

Tests used:
mouse jejunum = details: in vivo
NHE3 [1] = assay: NHE3 activity in differentiated human enteroid monolayers after nanoparticle delivery of peptide; format: cell-based; details: nanoparticles (250 nM) 18 h, FSK exposure, n=4
Description: NHE3 activity in PS120, Caco-2/BBe cells and human jejunal enteroids was determined fluorometrically (Photon Technologies Incorporated) using the intracellular pH sensitive dye BCECF, as reported (Levine et al., 1993; Sarker et al., 2008; Foulke-Abel et al., 2020). PS120/HA3-NHE3 cells were seeded on glass cover slips and studied at 70-80% confluency. Caco-2/BBe/HA3-NHE3 cells were grown to confluency on Transwell inserts (polyester, 0.4-μm pore size) and studied approximately 14-16 days pod. Human duodenal enteroid monolayers on Transwell inserts were differentiated for 5 days in the absence of Wnt3a, R-spondin, and noggin as described (Noel et al., 2017; Staab et al., 2020).
Rates of Na^+/H^+ exchange were determined as Na^+-dependent alkalinization in the presence of 50-μM HOE-694 (to inhibit all other plasma membrane NHE isoforms) in HCO3-free solutions, with internal calibration using the nigericin/K+ method, as previously described (Sarker et al., 2008; Foulke-Abel et al., 2020). Kinetic analysis was used for PS120 cell studies (expressed as Vmax) and initial rates (ΔpH/min) for Caco-2/BBe cells, mouse intestine in vitro, and human enteroids. For in vitro mouse jejunal transport studies, NHE3 activity (in the presence of 50-μM HOE-694) was measured using SNARF-4F at 37° C. in a perfusion chamber using a two-photon microscope (Olympus FV1000) and 25× objective, as described (Murtazina et al., 2011).
PBAE polymer and peptide were separately dissolved in pH 7.4 150-mM PBS and combined at a 1:1 volume ratio. Final concentrations of the components were 6-ng/μL peptide and 180-ng/μL polymer (30:1 polymer: peptide weight ratio). Polymer and peptide nanoparticles were allowed to self-assemble at room temperature for 10 minutes. For characterization, nanoparticles were diluted 1:5 in PBS. Hydrodynamic diameter and zeta potential were measured using a Malvern Zetasizer Pro (Malvern Panalytical, Malvern, UK). Stability was assessed by incubating nanoparticles at RT up to 45 minutes then measuring hydrodynamic diameter over 45 minutes. […]

adenylate cyclase-cAMP = assay: cAMP assay in human enteroid monolayers exposed to FSK; format: cell-based; details: nanoparticles with 250-nM peptide, FSK (10 μM) 45 min, CP-2 vs N3SP-1Δ7
Description: Human jejunal enteroid monolayers on Transwell inserts (Corning Cat #: 3470) were differentiated for 5 days and then in serum-free media were exposed apically to nanoparticles containing either 250-nM CP-2 or N3SP-1Δ7. The peptide and polymer in PBS were prepared just before use, allowed to combine for 10 min before being added to the apical surface of enteroid monolayers at room temperature. Monolayers were incubated for 4 hours at 37° C., 5% CO2 incubator before the nanoparticles were removed, then monolayers were washed 3 times with cold PBS and changed to differentiation media and moved to a 37° C. incubator. Differentiation media was removed 24 hours later and washed twice with CMGF-media (Advanced DMEM/F12 with 10-mM Hepes, 10-mM GlutaMax, and 1000 Units/mL Penn/Strep). Next, 100 μL of CMGF-media containing 10-mM Theophylline, 50-μM Cilostazol and 50-μM Rolipram was added to the apical and basolateral surfaces followed by exposure to FSK (10 μM) at 37° C., 5% CO2, for 45 min before apical and basolateral media were collected and cells were lysed in 200-μL 0.1 M HCl for cAMP analysis. CAMP in apical, basolateral, and cells was determined using nonradioactive, CAMP-ELISA kits from ENZO Life Sciences (Loerrach, German), using the acetylation protocol in which the yellow-colored product is inversely proportional to the amount of CAMP present in the sample.

mouse ileal loops [2] = assay: Basal fluid absorption in closed mouse ileal loops, nanoparticle-conjugated peptides, with or without Tenapanor; format: in vivo; details: nanoparticle conjugated peptide 400 nM, Tenapanor (10 μM) in both incubation periods
Description: (§1) All in vivo studies were performed on 8-12 week old C57B1/6N mice anesthetized with isofluorane and kept at 37° C. via heating lamps and rectal thermal probes.
(§2) Effect on basal fluid transport and effect of Tenapanor. Mice operated on as above had 3-4 cm closed ileal loops inoculated with 150-μL PBS containing 400-nM nanoparticle-CP-2 or -N3SP-1Δ7. After 4 h, the loops were drained and inoculated with 150-μL PBS. 30 min later, the animals were sacrificed and loop weight/length determined. In parallel studies, Tenapanor (10 μM) was present in both incubation periods. Similar to the BODIPY-conjugated peptide studies, the effects of nanoparticle-CP-2 or N3SP-1Δ7 (4 μM) compared to PBS alone were determined on net fluid secretion produced by inoculation of 0.1-μg CTx. The nanoparticle-peptides plus 0.1-μg CTx in 150-μL PBS were inoculated in 3-4 cm long closed ileal loops. Additional controls included loops exposed only to 150-μL PBS and those only exposed to the CTx/PBS. 4 h later, the animals were sacrificed and loop weight/cm length was determined.

mouse ileal loops [3] = assay: CTx-induced fluid secretion in closed mouse ileal loops, nanoparticle-conjugated peptides; format: in vivo; details: nanoparticle-peptide 4 μM with 0.1-μg CTx, 4 hours
Description: as §1, §2

[4] = Nanoparticle characterization: hydrodynamic diameter, zeta potential, stability; format: physicochemical; details: CR5 with peptide, 30:1 polymer:peptide weight ratio
Description: PBAE polymer and peptide were separately dissolved in pH 7.4 150-mM PBS and combined at a 1:1 volume ratio. Final concentrations of the components were 6-ng/μL peptide and 180-ng/μL polymer (30:1 polymer: peptide weight ratio). Polymer and peptide nanoparticles were allowed to self-assemble at room temperature for 10 minutes. For characterization, nanoparticles were diluted 1:5 in PBS. Hydrodynamic diameter and zeta potential were measured using a Malvern Zetasizer Pro (Malvern Panalytical, Malvern, UK). Stability was assessed by incubating nanoparticles at RT up to 45 minutes then measuring hydrodynamic diameter over 45 minutes. Nanoparticles were made immediately prior to each experiment.

NHE3 [5] = assay: NHE3 stimulation, summary statement over models and delivery systems; format: cell-based; details: using either delivery system (maleimide or nanoparticles); read-out: EC50 for stimulation of basal and second messenger inhibited NHE3

Substance | effect on CTx-stimulated net fluid secretion (loop weight/cm) (mouse jejunum) | NHE3 activity after FSK, % of same peptide without FSK (NHE3 [1]) [%] | FSK-increased intracellular cAMP (adenylate cyclase-cAMP) | residual fluid in presence of Tenapanor, CP2 vs N3SP-1Δ7 (mouse ileal loops [2]) | effect on CTx-induced fluid in ileal loops (loop weight/length) (mouse ileal loops [3]) | surface zeta potential (electrophoretic light scattering) [4] [mV] | nanoparticle diameter (DLS) ([4]; aqueous) [nm] | EC50 (NHE3 [5]) [µM]
CP-2: control peptide, N3SP-1 lacking first ten N-terminal amino acids (rabbit NHE3 residues 578-605) (TVEASVSYLLRESASAVCLDMQSLEQRR; UniProt P26432 578-605, looked up, fragment) | Results similar to those with N3SP-1 and CP-1 | 77.2 | similar | no difference in residual fluid | did not reduce the residual loop volume | 24.6±0.5 | 319±55 | –
N3SP: general name of the NHE3 stimulatory peptide (N3SP-1 and active truncations) (RPSTVEASVSYLLRESASAVCLDMQSLEQRR) [Peptide N3SP] | – | – | – | – | – | – | – | ~0.15
